Entries after “also recorded” stand apart in the source; their conditions may differ.
What was measured:
[1] = test system: HeLa cells; assay: Flow-FISH telomere length (PNA-FITC probe) and PI cell cycle analysis in treated telomerase positive HeLa cells; type: cell-based, human; settings: for apoptosis (flow-FISH) / cell cycle (PI) / telomere length (flow-FISH): 10 days of treatment, ACV 3 μM, FIG. 1; for apoptosis (flow-FISH) / cell cycle (PI) / telomere length (flow-FISH) / apoptosis / cell cycle distribution / telomere length: GCV 1.5 μM, PCV 1.5 μM; for apoptosis / cell cycle distribution / telomere length: after 10 and 14 days of treatments, ACV 3.0 μM; for cell cycle distribution (PI): treated for 14 days
Procedure: (§1) Both telomerase positive (HeLa) telomerase negative (U-2 OS) cell lines were used. Appropriate assays were performed to detect and confirm telomerase/L1RT specific activity in these cells.
(§2) Telomere length in ACV, GCV and PCV treated and untreated cell lines was measured by flow cytometry with a telomere-specific peptide nucleic acid (PNA) probe^23,24. To determine cell cycle distribution, cells were stained with propidium iodide (PI)^23.
(§3) The U-2 OS (osteosarcoma) and HeLa (uterine cervix) cell lines used in this study were obtained from American Type Culture Collection (Rockville, Md.). Cells were cultured in D-MEM media supplemented with 10% fetal calf serum at 37° C. in a humidified atmosphere of 5% CO2. For treatment of the cells with ACV, the media was supplemented with 3 μM of acyclovir (acyclovir, TEVA Pharm. Ind. Ltd, Israel). For treatment of the cells with GCV, the media was supplemented with 1.5 μM of GCV (Cymevene, Hoffman-La Roche). For treatment of the cells with PCV, the media was supplemented with 1.5 μM of PCV (penciclovir, Merck & Co.).
(§4) For telomere length measurement by flow cytometry, cells were stained with telomere specific FITC conjugated (C3TA2)3 PNA (Applied Biosystems) probe and contrastained with 0.06 μg/ml PI as described by Rufer et al., 1998, Telomere length dynamics in human lymphocyte subpopulations were measured by flow cytometry, Nat. Biotechnol. 16, 743-747.

[2] = test system: U-2 OS cells; assay: Flow-FISH telomere length (PNA-FITC probe) and PI cell cycle analysis in treated telomerase negative U-2 OS cells; type: cell-based, human; settings: for apoptosis (flow-FISH) / cell cycle (PI) / telomere length (flow-FISH): ACV 3 μM; for apoptosis (flow-FISH) / cell cycle (PI) / telomere length (flow-FISH) / apoptosis / cell cycle distribution / telomere length: GCV 1.5 μM, PCV 1.5 μM; for apoptosis / cell cycle distribution / telomere length: after 10 and 14 days of treatments, ACV 3.0 μM
Procedure: as §1, §2, §3, §4

[3] = test system: HeLa cells; assay: Tumor growth progression assay, s.c. HeLa xenografts in nude mice; type: in vivo, nude (nu/nu) mice; settings: 1×10^6 HeLa cells s.c., GCV 2 mg/ml in drinking water ad libitum from day zero
Source text: Exemplary in vivo assays of anti-tumor efficacy of ACV, PCV and/or GCV using nude mice subcutaneous (s.c.) tumors grown from the human HeLa cancer cell line (i.e., xenografts bearing mice) as cancer models are described below. Human cancerous cells needed for in vivo assays may be prepared, for example, as follows: Telomerase positive HeLa human cell line and telomerase negative U-2 OS human cell line are obtained from public sources. Cells are maintained in D-MEM media supplemented with 10% foetal calf serum at 37° C. in a humidified atmosphere of 5% CO2. For in vivo assay, appropriate host, e.g., nude (nu/nu) mice of about 5-7 weeks old are obtained and maintained in pathogen-free conditions. Approximately, 1×10^6 HeLa cells (and/or U-2 OS cells) contained in 200 μl of serum-free media are delivered to all animals, briefly anaesthetized with Metofane, by subcutaneous (s.c.) injection in flank. Then the mice are divided into experimental group and control group. Appropriate concentrations of ACV, PCV and/or GCV are used for tumor growth progression or regression assays. In one embodiment, impairment of s.c. tumor growth or time to progression rather than decrease in size of an established tumor (regression) is assessed. […] Tumors are measured every 2-3 days. […] Tumor volume is calculated with formula 4/3πr^3, where r is the radius of the tumor.

## Nc1nc2c(ncn2COCCO)c(=O)[nH]1 [ACV, 9-[2(hydromethoxy)-methyl]guanine]
[1]
  apoptosis (flow-FISH): massive apoptosis
  cell cycle (PI): changes in cell cycle
  telomere length (flow-FISH): decrease in telomere length
  apoptosis: massive apoptosis
  cell cycle distribution: G2 arrest
  telomere length: telomere shortening
  cell cycle distribution (PI): G2 arrest of cell cycle
[1]; ACV treatment
  onset of changes in cell cycle distribution: could be detected after only few days
[2]; 10 days of treatment, FIG. 2
  apoptosis (flow-FISH): massive apoptosis
  cell cycle (PI): changes in cell cycle
  telomere length (flow-FISH): decrease in telomere length
[2]; 14 days of treatment
  cell cycle (PI): changes in cell cycle; also recorded: G2 arrest of cell cycle
[2]; 14 days of treatment, FIG. 3
  apoptosis (flow-FISH): massive apoptosis
  telomere length (flow-FISH): decrease in telomere length
[2]; ACV treatment
  onset of changes in cell cycle distribution: could be detected after only few days
[2]
  apoptosis: massive apoptosis
  cell cycle distribution: G2 arrest
  telomere length: telomere shortening

## Nc1nc(O)c2ncn(COC(CO)CO)c2n1 [GCV]
[1]
  apoptosis (flow-FISH): massive apoptosis
  cell cycle (PI): changes in cell cycle
  telomere length (flow-FISH): decrease in telomere length
  apoptosis: massive apoptosis
  cell cycle distribution: G2 arrest
  telomere length: telomere shortening
  cell cycle distribution (PI): G2 arrest of cell cycle
[2]; 10 days of treatment, FIG. 2
  apoptosis (flow-FISH): massive apoptosis
  cell cycle (PI): changes in cell cycle
  telomere length (flow-FISH): decrease in telomere length
[2]; 14 days of treatment
  cell cycle (PI): changes in cell cycle; also recorded: G2 arrest of cell cycle
[2]; 14 days of treatment, FIG. 3
  apoptosis (flow-FISH): massive apoptosis
  telomere length (flow-FISH): decrease in telomere length
[2]
  apoptosis: massive apoptosis
  cell cycle distribution: G2 arrest
  telomere length: telomere shortening
[3]
  s.c. tumor development: remain tumor free

## Nc1nc2c(ncn2CCC(CO)CO)c(=O)[nH]1 [PCV]
[1]
  apoptosis (flow-FISH): massive apoptosis
  cell cycle (PI): changes in cell cycle
  telomere length (flow-FISH): decrease in telomere length
  apoptosis: massive apoptosis
  cell cycle distribution: G2 arrest
  telomere length: telomere shortening
  cell cycle distribution (PI): G2 arrest of cell cycle
[2]; 10 days of treatment, FIG. 2
  apoptosis (flow-FISH): massive apoptosis
  cell cycle (PI): changes in cell cycle
  telomere length (flow-FISH): decrease in telomere length
[2]; 14 days of treatment
  cell cycle (PI): changes in cell cycle; also recorded: G2 arrest of cell cycle
[2]; 14 days of treatment, FIG. 3
  apoptosis (flow-FISH): massive apoptosis
  telomere length (flow-FISH): decrease in telomere length
[2]
  apoptosis: massive apoptosis
  cell cycle distribution: G2 arrest
  telomere length: telomere shortening
